Experiments:
Experiment in all cases: relative viability (nuclei count vs DMSO), 5 days (fraction); higher = more cells survive
[1] = compound: Cn1cc(-c2cnn3c(N)c(Br)c([C@@H]4CCCNC4)nc23)cn1 + CCNC(=O)c1noc(-c2cc(C(C)C)c(O)cc2O)c1-c1ccc(CN2CCOCC2)cc1 [Luminespib] (partner 0.01 µM)
Outline: (§1)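 Relative viability was taken as the ratio of nuclei in treated wells to nuclei in vehicle wells. Lung cancer cell lines in 1536-well plates received compounds by pin tool one day after seeding, either one drug alone or a fixed anchor-drug dose plus five library-drug doses (not always all listed) in √10 steps. Nuclei were counted on 4× images after 5 days of treatment, and values are medians of duplicate plates.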

[2] = compound: Cn1cc(-c2cnn3c(N)c(Br)c([C@@H]4CCCNC4)nc23)cn1 + Cc1cc(Nc2cc(N3CCN(C)CC3)nc(Sc3ccc(NC(=O)C4CC4)cc3)n2)n[nH]1 [Tozasertib] (partner 0.1 µM)
Outline: as §1

[3] = compound: Cn1cc(-c2cnn3c(N)c(Br)c([C@@H]4CCCNC4)nc23)cn1 + NC(=O)Nc1cc(-c2cccc(F)c2)sc1C(=O)N[C@H]1CCCNC1 [AZD7762] (partner 0.2 µM)
Outline: as §1

[4] = compound: Cn1cc(-c2cnn3c(N)c(Br)c([C@@H]4CCCNC4)nc23)cn1 + COc1cc2c(Oc3ccc(NC(=O)C4(C(=O)Nc5ccc(F)cc5)CC4)cc3F)ccnc2cc1OCCCN1CCOCC1 [Foretinib] (partner 0.25 µM)
Outline: as §1

Cell Line	relative viability ([1]; first compound 0.1581 µM)	relative viability ([1]; first compound 0.5 µM)	relative viability ([1]; first compound 1.581 µM)	relative viability ([1]; first compound 5 µM)	relative viability ([2]; first compound 0.1581 µM)	relative viability ([2]; first compound 0.5 µM)	relative viability ([2]; first compound 1.581 µM)	relative viability ([2]; first compound 5 µM)	relative viability ([3]; first compound 0.05 µM)	relative viability ([3]; first compound 0.1581 µM)	relative viability ([3]; first compound 0.5 µM)	relative viability ([3]; first compound 1.581 µM)	relative viability ([3]; first compound 5 µM)	relative viability ([4]; first compound 0.1581 µM)	relative viability ([4]; first compound 0.5 µM)	relative viability ([4]; first compound 1.581 µM)	relative viability ([4]; first compound 5 µM)	relative viability ([4]; first compound 0.05 µM)	relative viability ([2]; first compound 0.05 µM)	relative viability ([1]; first compound 0.05 µM)
HCC-44	0.995	1.29	0.557	0.771	0.875	1.12	0.637	0.618	0.889	1.01	1.02	0.964	1.05	–	–	–	–	–	–	–
HCC-78	–	–	–	–	0.456	0.404	0.407	0.279	0.515	0.647	0.648	0.563	0.386	0.666	0.561	0.535	0.576	–	–	–
HCC-366	–	–	–	–	0.703	0.169	0.0808	0.0856	0.202	0.247	0.344	0.229	0.224	0.887	0.93	0.855	0.865	0.967	0.144	–
IA-LM	–	–	–	–	–	–	–	–	–	–	–	–	–	1.23	1.06	0.861	0.54	1.19	–	–
NCI-H520	0.206	0.217	0.219	0.221	0.397	0.41	0.444	0.342	–	–	–	–	–	0.836	0.751	0.664	0.58	0.671	0.471	0.207
NCI-H522	1.26	1.17	1	0.87	0.638	0.6	0.577	0.543	0.616	0.812	0.882	0.763	0.748	–	–	–	–	–	0.575	1.23
NCI-H661	0.953	0.991	0.829	0.729	0.343	0.371	0.372	0.379	–	–	–	–	–	0.991	0.979	1.02	0.932	1.05	0.344	0.953
NCI-H1299	–	–	–	–	–	–	–	–	–	–	–	–	–	1.14	1.12	0.988	0.833	1.08	–	–
NCI-H1563	0.578	0.51	0.55	0.37	–	–	–	–	–	–	–	–	–	1.02	0.841	0.921	0.875	0.939	–	0.62
NCI-H1648	–	–	–	–	0.436	–	0.377	0.381	0.607	0.635	0.717	0.649	0.637	–	–	–	–	–	0.395	–
NCI-H1650	0.146	0.241	0.194	0.186	0.408	0.33	0.3	0.261	–	–	–	–	–	1.3	1.2	1.05	0.658	–	–	–

Source: the supplement of paper PMC10307832
